The text below walks through data of ChEMBL document CHEMBL2385026, “Identification of C-2 hydroxyethyl imidazopyrrolopyridines as potent JAK1 inhibitors with favorable physicochemical properties and high selectivity over JAK2” (J Med Chem, 2013).

In data set [1] the target is T1, Tyrosine-protein kinase JAK1 (Homo sapiens, UniProt P23458).
Data set [2] deals with T1, Tyrosine-protein kinase JAK1. This is another data set of the same source.
Data set [3] can be described thus: Hepatic clearance in human hepatocytes after 1 to 4 hrs by LC/MS/MS analysis. In kind it is ADME, cell-based, Liver, Hepatocyte.
Data set [4] is described as follows: Hepatic clearance in human liver microsomes by LC/MS/MS analysis. It counts as ADME, Microsome. On the technique in general: Liver microsomes are vesicles of endoplasmic reticulum, rich in cytochrome P450 enzymes.
Data set [5] concerns the target T1, Tyrosine-protein kinase JAK1. The source holds these as a separate data set.
A short description of data set [6]: Apparent permeability across apical to basolateral side in dog MDCK cells. It counts as ADME, cell-based, Canis lupus familiaris.
In data set [7] the target is T2, Tyrosine-protein kinase JAK2 (Homo sapiens, UniProt O60674). In kind it is cell-based, TF-1.
Data set [8] has as its target T2, Tyrosine-protein kinase JAK2.

By EC50 is commonly meant the concentration at which the effect is half-maximal. Lower therefore signals an effect from little substance. In general, Ki refers to the dissociation constant of the complex between target and ligand, obtained from inhibition or displacement. Read a low Ki as a stronger hold on the target. A word on the Papp A→B: it is how fast a substance crosses the layer from the apical side.

T2 sequence (O60674 whole entry): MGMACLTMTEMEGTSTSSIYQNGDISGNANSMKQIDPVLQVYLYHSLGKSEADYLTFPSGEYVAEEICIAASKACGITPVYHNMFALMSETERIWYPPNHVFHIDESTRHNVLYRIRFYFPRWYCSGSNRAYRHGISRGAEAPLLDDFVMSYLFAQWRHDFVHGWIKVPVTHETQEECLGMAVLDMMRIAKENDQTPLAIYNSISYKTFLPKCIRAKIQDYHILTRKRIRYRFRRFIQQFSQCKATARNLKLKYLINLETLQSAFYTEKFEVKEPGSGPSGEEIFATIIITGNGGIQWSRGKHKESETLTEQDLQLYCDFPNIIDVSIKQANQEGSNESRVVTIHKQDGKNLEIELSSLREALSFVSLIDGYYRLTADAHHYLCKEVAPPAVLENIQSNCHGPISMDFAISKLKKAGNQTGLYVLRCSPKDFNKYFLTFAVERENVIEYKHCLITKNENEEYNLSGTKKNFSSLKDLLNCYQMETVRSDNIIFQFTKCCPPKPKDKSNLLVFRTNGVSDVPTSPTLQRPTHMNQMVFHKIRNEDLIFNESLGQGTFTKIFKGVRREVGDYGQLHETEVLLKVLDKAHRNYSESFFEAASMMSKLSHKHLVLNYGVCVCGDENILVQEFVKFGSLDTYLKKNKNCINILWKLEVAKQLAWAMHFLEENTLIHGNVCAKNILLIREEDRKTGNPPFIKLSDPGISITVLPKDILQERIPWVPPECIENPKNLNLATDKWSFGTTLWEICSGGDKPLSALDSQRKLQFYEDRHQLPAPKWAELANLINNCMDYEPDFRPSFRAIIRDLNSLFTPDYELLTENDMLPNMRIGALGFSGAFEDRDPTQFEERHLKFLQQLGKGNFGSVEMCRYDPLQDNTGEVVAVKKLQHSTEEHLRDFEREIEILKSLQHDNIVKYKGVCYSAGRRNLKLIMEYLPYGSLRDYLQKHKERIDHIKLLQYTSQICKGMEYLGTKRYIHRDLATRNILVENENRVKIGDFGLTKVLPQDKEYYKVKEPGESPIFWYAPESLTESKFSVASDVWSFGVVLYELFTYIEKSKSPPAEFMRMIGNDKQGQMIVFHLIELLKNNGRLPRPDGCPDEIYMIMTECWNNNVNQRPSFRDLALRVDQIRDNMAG
T1 sequence (P23458 whole entry): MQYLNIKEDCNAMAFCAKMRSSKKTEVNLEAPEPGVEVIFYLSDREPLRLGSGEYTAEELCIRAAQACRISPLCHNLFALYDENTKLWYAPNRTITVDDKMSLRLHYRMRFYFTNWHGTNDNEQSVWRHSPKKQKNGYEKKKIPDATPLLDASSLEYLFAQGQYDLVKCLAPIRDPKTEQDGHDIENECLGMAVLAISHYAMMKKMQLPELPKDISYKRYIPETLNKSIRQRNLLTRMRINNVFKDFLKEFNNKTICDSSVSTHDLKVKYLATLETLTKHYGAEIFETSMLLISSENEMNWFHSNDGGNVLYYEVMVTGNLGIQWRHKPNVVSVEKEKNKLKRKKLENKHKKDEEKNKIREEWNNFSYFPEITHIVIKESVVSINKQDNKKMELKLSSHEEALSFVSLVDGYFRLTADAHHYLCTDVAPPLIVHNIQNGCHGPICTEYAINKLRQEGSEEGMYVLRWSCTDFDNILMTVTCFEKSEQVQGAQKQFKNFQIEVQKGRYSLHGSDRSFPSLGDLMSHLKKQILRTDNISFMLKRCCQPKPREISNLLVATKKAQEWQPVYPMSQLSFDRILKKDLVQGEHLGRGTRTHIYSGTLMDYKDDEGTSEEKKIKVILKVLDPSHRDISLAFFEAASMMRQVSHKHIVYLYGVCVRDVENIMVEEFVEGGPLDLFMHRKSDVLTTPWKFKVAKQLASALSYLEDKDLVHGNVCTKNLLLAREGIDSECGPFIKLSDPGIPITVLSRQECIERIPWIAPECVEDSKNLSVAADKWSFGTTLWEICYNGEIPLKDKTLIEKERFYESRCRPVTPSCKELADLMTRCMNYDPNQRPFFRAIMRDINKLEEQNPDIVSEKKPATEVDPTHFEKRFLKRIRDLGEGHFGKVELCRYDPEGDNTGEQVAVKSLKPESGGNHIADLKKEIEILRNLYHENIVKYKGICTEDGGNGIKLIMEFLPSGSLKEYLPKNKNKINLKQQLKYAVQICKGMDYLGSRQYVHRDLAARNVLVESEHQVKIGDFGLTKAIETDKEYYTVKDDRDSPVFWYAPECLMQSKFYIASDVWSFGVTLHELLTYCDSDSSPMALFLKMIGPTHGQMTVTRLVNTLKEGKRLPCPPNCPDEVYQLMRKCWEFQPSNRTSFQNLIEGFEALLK

Regarding `C[C@@H](O)c1nc2cnc3[nH]ccc3c2n1[C@H]1CC[C@H](NCC(F)F)CC1`, the EC50 worked out at 57 nM in data set [1] and 62 nM in data set [5]. In data set [2], this compound displayed a Ki of 1.1 nM. Also, the values for the CLhep predicted in data set [3] and in data set [4] were 1.1 mL/min/kg and 3.6 mL/min/kg, respectively. For the same compound, the Papp A→B in data set [6] is 2.8 ×10⁻⁶ cm/s.
In turn, `C[C@H](O)c1nc2cnc3[nH]ccc3c2n1C1CCCCC1` yielded an EC50 in data set [7] of 5300 nM. In addition, in data set [8], the affinity corresponds to a Ki of 90 nM.
In the case of `C[C@@H](O)c1nc2cnc3[nH]ccc3c2n1[C@H]1CC[C@H](NCC(F)(F)F)C1`, the concentration for a half-maximal effect (EC50) in data set [1] is 74 nM; in data set [5], 82 nM. This compound also yielded a Ki in data set [2] of 1.2 nM. The CLhep predicted is 3.5 mL/min/kg in data set [3] and 5.6 mL/min/kg in data set [4]. Also, in data set [6], the Papp A→B was 10 ×10⁻⁶ cm/s.
With `CC(C)(O)c1nc2cnc3[nH]ccc3c2n1C1CCCCC1`, the values for the EC50 in data set [1] and in data set [7] were 330 nM and 4400 nM, respectively. Further, the inhibition constant Ki amounted to 13 nM in data set [2] and 76 nM in data set [8]. The Papp A→B in data set [6] was determined as 19 ×10⁻⁶ cm/s.
`C[C@@H](O)c1nc2cnc3[nH]ccc3c2n1[C@@H]1CCCN(C(=O)CC#N)C1`: in data set [1], a half-maximal response (EC50) required 8200 nM. In data set [2], the Ki was determined as 5.2 nM. In addition, the CLhep predicted in data set [4] is 1 mL/min/kg. Also, the Papp A→B in data set [6] was determined as 0.2 ×10⁻⁶ cm/s.
With `OC[C@H](O)c1nc2cnc3[nH]ccc3c2n1C1CCCCC1`, in data set [1], the EC50 came to 320 nM. Also, the Ki in data set [2] is 7.2 nM.
Take `OCc1nc2cnc3[nH]ccc3c2n1C1CCCCC1`: the values for the concentration for a half-maximal effect (EC50) in data set [1], in data set [5] and in data set [7] were 64 nM, 313 nM and 730 nM, respectively. For the same compound, the Ki came to 1.1 nM in data set [2] and 8.3 nM in data set [8]. Besides, the figures for the CLhep predicted in data set [3] and in data set [4] were 19 mL/min/kg and 5.6 mL/min/kg, respectively. In data set [6], the apical-to-basolateral permeability (Papp A→B) is 24 ×10⁻⁶ cm/s.
With `C[C@@H](O)c1nc2cnc3[nH]ccc3c2n1[C@@H]1CCCN(C(=O)CC(F)(F)F)C1`, in data set [2], affinity was put at a Ki of 43 nM. Also, in data set [4], the CLhep predicted is 5.2 mL/min/kg.
With `CO[C@H]1CC[C@H](n2c([C@@H](C)O)nc3cnc4[nH]ccc4c32)CC1`, the CLhep predicted in data set [3] was 5.9 mL/min/kg; in data set [4] it was 1.3 mL/min/kg. The apparent permeability from apical to basolateral (Papp A→B) in data set [6] amounted to 6.7 ×10⁻⁶ cm/s.
In turn, `C[C@@H](O)c1nc2cnc3[nH]ccc3c2n1[C@H]1CC[C@@H](O)CC1` showed an EC50 in data set [1] of 380 nM. The compound further showed an inhibition constant Ki in data set [2] of 12 nM. The CLhep predicted in data set [4] was 2.1 mL/min/kg.
As to `C[C@@H](O)c1nc2cnc3[nH]ccc3c2n1[C@H]1CC[C@H](O)CC1`, the EC50 in data set [1] was determined as 410 nM; in data set [5], 730 nM. Further, in data set [4], the CLhep predicted was 1.9 mL/min/kg.
Compound `C[C@@H](O)c1nc2cnc3[nH]ccc3c2n1C1CCOCC1` displayed a Ki in data set [2] of 31 nM.
For the compound `CC[C@@H](O)c1nc2cnc3[nH]ccc3c2n1C1CCCCC1`, the results for the CLhep predicted in data set [3] and in data set [4] were 12 mL/min/kg and 7.6 mL/min/kg, respectively. For the same compound, the Papp A→B in data set [6] stood at 22 ×10⁻⁶ cm/s.
As to `C[C@@H](O)c1nc2cnc3[nH]ccc3c2n1C1CCN(CCC#N)CC1`, the figures for the EC50 in data set [1] and in data set [5] were 510 nM and 320 nM, respectively. This compound also came in with a Ki in data set [2] of 3.4 nM. For the same compound, the CLhep predicted in data set [3] was 6.8 mL/min/kg; in data set [4], 4.2 mL/min/kg. For the same compound, the apical-to-basolateral permeability (Papp A→B) in data set [6] came out at 1.9 ×10⁻⁶ cm/s.
`OC[C@@H](O)c1nc2cnc3[nH]ccc3c2n1C1CCCCC1`: the EC50 in data set [1] is 69 nM; in data set [5], 220 nM. Besides, affinity in data set [2] was put at a Ki of 1.6 nM. Moreover, the values for the CLhep predicted in data set [3] and in data set [4] were 6.8 mL/min/kg and 1.8 mL/min/kg, respectively. In data set [6], the apparent permeability from apical to basolateral (Papp A→B) is 16 ×10⁻⁶ cm/s.
The compound `C[C@@H](O)c1nc2cnc3[nH]ccc3c2n1[C@H]1CC[C@@H](NCC(F)(F)F)CC1` came in with a Ki in data set [2] of 53 nM. The CLhep predicted in data set [3] is 16 mL/min/kg; in data set [4], 18 mL/min/kg.
Turning to `C[C@@H](O)c1nc2cnc3[nH]ccc3c2n1C1CCN(CC(F)(F)F)CC1`, the EC50 came to 110 nM in data set [1] and 820 nM in data set [5]. For the same compound, in data set [2], the Ki worked out at 2.6 nM. Moreover, the CLhep predicted in data set [3] was 8.5 mL/min/kg; in data set [4], 9.2 mL/min/kg. In addition, the apical-to-basolateral permeability (Papp A→B) in data set [6] was found to be 25 ×10⁻⁶ cm/s.
In data set [2], `C[C@@H](O)c1nc2cnc3[nH]ccc3c2n1[C@@H]1CCCOC1` displayed a Ki of 68 nM. In data set [4], the CLhep predicted was 4.6 mL/min/kg.
For the compound `OCCc1nc2cnc3[nH]ccc3c2n1C1CCCCC1`, the EC50 in data set [1] is 130 nM; in data set [5], 1500 nM; in data set [7] it was 1500 nM. For the same compound, the results for the Ki in data set [2] and in data set [8] were 3.5 nM and 18 nM, respectively. Further, the CLhep predicted is 17 mL/min/kg in data set [3] and 5.3 mL/min/kg in data set [4]. Also, in data set [6], the Papp A→B was 23 ×10⁻⁶ cm/s.
As to `C[C@@H](O)c1nc2cnc3[nH]ccc3c2n1[C@H]1CC[C@@H](C#N)CC1`, the results for the EC50 in data set [1] and in data set [5] were 49 nM and 78 nM, respectively. In addition, in data set [2], the Ki came out at 0.9 nM. Also, the CLhep predicted was 5.6 mL/min/kg in data set [3] and 4.3 mL/min/kg in data set [4]. Also, in data set [6], the Papp A→B came out at 4.2 ×10⁻⁶ cm/s.
`C[C@@H](O)c1nc2cnc3[nH]ccc3c2n1C1CCCCC1` showed an EC50 in data set [7] of 1700 nM. Further, in data set [6], the Papp A→B was 23 ×10⁻⁶ cm/s. Besides, the Ki in data set [8] turned out to be 21 nM.
Turning to `CCN1CCC(n2c([C@@H](C)O)nc3cnc4[nH]ccc4c32)C(F)(F)C1` (some centres not stated), the EC50 came to 88 nM in data set [1] and 330 nM in data set [5]. Also, affinity in data set [2] was put at a Ki of 2 nM. For the same compound, the CLhep predicted in data set [3] was 3.7 mL/min/kg; in data set [4], 2.9 mL/min/kg. For the same compound, the apparent permeability from apical to basolateral (Papp A→B) in data set [6] worked out at 15 ×10⁻⁶ cm/s.
Regarding `C[C@@H](O)c1nc2cnc3[nH]ccc3c2n1[C@@H]1CCC[C@@H](O)C1`, the 50% effective concentration (EC50) is 120 nM in data set [1] and 140 nM in data set [5]. For the same compound, in data set [6], the Papp A→B was 1.1 ×10⁻⁶ cm/s.
